From ChEMBL document CHEMBL3991601, “The target landscape of clinical kinase drugs” (Science, 2017)
Active and inactive are the calls of the source. For most assays here, no stated cut-off is given here; in the data, actives have a measured Kd and inactives only a lower limit.

What was measured:
[1] = target: T1, Dual specificity mitogen-activated protein kinase kinase 5 (Homo sapiens, UniProt Q13163)
T1 sequence (Q13163 whole entry): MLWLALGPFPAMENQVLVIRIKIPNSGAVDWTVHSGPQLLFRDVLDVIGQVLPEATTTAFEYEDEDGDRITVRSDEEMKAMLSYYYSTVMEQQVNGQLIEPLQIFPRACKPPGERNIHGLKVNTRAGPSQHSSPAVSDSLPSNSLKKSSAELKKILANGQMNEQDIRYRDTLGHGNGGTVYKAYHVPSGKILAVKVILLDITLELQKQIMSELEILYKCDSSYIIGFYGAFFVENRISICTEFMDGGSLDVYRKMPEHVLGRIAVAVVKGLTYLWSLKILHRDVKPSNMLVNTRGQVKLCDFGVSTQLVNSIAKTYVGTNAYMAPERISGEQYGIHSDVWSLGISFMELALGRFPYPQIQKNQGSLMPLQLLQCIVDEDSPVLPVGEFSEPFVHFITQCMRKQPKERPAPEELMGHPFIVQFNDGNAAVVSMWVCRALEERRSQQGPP

[2] = target: Serine/threonine-protein kinase 16 (Homo sapiens, UniProt O75716)
[3] = target: T2, Dual specificity mitogen-activated protein kinase kinase 3 (Homo sapiens, UniProt P46734)
T2 sequence (P46734 whole entry): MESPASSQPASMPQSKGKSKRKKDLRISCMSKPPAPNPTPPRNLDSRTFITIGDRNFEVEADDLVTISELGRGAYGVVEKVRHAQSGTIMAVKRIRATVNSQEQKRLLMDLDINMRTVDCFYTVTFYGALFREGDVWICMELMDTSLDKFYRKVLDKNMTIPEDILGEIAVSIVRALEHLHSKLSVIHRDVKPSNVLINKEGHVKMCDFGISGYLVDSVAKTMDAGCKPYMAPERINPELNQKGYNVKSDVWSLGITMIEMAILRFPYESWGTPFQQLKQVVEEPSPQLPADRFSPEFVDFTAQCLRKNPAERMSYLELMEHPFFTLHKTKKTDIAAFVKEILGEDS

[4] = target: Dual specificity protein kinase CLK1 (Homo sapiens, UniProt P49759)
[5] = target: Receptor-interacting serine/threonine-protein kinase 2 (Homo sapiens, UniProt O43353)
Ephrin type-B receptor 2 = target: T3, Ephrin type-B receptor 2 (Homo sapiens, UniProt P29323)
T3 sequence (P29323 whole entry): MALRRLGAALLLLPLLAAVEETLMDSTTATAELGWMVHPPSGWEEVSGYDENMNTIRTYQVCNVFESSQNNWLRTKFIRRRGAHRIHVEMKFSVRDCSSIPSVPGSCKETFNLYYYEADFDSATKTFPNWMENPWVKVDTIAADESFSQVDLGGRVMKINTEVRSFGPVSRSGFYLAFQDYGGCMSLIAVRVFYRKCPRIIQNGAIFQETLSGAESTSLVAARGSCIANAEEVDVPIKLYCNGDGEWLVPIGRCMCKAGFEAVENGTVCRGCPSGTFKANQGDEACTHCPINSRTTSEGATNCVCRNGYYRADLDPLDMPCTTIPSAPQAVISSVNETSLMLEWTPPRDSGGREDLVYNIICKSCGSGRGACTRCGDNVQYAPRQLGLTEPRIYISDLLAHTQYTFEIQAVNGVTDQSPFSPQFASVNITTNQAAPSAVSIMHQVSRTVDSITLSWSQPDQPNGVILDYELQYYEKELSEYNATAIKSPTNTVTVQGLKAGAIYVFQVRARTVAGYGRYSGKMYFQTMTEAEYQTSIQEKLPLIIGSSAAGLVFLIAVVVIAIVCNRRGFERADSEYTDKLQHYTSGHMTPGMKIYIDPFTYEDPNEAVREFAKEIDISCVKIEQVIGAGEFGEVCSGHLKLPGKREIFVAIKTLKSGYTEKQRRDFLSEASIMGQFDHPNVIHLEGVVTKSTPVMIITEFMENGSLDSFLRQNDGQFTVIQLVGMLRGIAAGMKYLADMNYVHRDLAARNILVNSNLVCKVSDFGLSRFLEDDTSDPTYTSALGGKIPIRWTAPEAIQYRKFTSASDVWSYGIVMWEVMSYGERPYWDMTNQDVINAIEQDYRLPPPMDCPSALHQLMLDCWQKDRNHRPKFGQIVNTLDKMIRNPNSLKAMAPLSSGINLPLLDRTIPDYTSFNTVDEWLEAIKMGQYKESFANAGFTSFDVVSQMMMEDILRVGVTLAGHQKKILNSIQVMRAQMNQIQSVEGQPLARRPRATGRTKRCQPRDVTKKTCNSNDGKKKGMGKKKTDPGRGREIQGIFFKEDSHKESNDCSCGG

[6] = target: Rho-associated protein kinase 2 (Homo sapiens, UniProt O75116)
[7] = target: T4, Inhibitor of nuclear factor kappa-B kinase subunit epsilon (Homo sapiens, UniProt Q14164)
T4 sequence (Q14164 whole entry): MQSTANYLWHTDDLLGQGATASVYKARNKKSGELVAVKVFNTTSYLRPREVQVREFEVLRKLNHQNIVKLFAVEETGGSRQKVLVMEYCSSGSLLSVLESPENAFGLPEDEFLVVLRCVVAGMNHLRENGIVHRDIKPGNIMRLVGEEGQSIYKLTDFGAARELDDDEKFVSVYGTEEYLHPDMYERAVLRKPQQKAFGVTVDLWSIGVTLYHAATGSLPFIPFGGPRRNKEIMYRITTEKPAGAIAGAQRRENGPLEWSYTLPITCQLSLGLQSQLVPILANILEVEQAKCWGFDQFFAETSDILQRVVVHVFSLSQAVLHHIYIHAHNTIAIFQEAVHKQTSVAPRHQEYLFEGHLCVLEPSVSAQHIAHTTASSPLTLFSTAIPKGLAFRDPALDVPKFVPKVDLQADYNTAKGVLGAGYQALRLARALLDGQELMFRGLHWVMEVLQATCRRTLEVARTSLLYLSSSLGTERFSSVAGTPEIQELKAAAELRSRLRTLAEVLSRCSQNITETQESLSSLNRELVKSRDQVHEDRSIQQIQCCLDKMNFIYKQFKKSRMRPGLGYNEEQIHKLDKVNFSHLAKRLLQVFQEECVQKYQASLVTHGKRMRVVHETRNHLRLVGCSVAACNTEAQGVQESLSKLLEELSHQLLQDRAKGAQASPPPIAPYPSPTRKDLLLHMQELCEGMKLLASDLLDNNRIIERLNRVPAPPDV

[8] = target: Insulin-like growth factor 1 receptor (Homo sapiens, UniProt P08069)
Sequence of Insulin-like growth factor 1 receptor (P08069 31-736 limits assumed): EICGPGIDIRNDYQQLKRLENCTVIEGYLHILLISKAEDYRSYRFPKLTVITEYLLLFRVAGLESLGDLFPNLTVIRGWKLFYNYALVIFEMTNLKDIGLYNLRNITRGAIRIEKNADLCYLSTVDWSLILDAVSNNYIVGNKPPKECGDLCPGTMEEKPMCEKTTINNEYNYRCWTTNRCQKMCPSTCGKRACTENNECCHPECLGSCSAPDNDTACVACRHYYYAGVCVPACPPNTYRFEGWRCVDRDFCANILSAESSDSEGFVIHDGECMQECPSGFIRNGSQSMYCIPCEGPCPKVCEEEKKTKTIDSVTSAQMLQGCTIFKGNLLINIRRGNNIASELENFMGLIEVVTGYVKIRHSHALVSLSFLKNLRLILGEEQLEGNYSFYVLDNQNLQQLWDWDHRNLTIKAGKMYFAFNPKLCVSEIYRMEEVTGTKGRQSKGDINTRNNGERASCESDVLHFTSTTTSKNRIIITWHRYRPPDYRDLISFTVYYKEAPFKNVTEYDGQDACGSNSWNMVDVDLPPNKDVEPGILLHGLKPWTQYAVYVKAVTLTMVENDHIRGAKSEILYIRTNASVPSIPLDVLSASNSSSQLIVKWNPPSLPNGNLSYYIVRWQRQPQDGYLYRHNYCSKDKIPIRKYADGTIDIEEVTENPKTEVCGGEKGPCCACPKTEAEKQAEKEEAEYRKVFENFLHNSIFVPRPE
Sequence of Insulin-like growth factor 1 receptor (P08069 741-1367 limits assumed): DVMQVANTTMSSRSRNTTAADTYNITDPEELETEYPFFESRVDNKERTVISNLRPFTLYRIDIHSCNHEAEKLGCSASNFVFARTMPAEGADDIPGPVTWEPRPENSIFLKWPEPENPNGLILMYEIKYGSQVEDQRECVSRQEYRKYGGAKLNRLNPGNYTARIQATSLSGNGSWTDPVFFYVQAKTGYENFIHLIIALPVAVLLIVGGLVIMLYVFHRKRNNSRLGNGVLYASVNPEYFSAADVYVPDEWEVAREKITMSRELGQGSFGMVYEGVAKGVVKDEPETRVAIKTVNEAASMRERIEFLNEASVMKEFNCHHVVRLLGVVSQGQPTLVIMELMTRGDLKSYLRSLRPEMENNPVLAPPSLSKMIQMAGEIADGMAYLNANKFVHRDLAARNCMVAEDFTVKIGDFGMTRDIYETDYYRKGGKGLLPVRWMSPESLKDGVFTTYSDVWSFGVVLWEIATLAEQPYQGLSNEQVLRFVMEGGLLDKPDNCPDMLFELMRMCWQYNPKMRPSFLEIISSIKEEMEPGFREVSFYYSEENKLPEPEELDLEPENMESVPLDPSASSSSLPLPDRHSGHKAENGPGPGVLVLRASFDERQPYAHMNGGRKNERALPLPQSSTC

Sequence of Rho-associated protein kinase 2 (O75116 whole entry): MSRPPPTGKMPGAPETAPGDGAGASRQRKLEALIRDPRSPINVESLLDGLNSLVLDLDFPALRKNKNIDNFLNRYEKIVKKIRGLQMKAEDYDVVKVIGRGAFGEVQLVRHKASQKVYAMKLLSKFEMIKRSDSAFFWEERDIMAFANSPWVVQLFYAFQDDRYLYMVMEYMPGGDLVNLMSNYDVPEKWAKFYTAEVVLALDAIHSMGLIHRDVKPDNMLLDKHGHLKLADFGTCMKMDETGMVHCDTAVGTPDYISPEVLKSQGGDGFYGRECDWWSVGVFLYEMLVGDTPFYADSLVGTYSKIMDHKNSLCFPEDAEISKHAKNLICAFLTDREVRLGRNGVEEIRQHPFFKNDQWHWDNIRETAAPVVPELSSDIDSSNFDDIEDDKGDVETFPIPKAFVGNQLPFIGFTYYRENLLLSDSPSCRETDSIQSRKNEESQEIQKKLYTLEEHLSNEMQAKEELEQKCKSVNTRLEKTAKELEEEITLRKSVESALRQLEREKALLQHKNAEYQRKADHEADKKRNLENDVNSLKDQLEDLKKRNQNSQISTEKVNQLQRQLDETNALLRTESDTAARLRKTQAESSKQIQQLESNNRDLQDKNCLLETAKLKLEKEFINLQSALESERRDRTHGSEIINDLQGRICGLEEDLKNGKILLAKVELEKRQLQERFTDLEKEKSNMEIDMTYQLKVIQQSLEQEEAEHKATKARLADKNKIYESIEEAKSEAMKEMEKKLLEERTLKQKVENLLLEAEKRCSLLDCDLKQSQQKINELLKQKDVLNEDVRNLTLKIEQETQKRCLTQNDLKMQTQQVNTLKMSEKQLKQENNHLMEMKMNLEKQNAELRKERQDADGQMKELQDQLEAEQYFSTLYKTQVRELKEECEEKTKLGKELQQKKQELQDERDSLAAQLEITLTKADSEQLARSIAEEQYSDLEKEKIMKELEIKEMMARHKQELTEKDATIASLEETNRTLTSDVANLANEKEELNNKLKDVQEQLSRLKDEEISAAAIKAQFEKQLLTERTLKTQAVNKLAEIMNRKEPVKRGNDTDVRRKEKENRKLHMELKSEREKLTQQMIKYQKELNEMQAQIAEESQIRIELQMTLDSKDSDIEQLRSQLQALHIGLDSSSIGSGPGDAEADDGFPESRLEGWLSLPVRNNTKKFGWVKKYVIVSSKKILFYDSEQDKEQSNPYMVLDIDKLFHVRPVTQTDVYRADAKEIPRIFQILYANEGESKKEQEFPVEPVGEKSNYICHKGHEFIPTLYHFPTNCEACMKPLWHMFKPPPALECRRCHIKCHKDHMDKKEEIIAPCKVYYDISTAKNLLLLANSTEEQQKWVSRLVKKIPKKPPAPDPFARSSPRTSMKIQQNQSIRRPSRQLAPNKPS
Sequence of Serine/threonine-protein kinase 16 (O75716 whole entry): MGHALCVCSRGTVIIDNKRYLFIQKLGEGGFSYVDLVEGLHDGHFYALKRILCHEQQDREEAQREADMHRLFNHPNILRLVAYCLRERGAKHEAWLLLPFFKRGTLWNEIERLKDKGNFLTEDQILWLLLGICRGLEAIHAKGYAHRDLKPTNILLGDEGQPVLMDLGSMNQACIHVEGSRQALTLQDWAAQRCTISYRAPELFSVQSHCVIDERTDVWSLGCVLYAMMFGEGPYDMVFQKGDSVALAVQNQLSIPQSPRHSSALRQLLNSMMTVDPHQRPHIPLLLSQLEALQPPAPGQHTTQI
Sequence of Receptor-interacting serine/threonine-protein kinase 2 (O43353 whole entry): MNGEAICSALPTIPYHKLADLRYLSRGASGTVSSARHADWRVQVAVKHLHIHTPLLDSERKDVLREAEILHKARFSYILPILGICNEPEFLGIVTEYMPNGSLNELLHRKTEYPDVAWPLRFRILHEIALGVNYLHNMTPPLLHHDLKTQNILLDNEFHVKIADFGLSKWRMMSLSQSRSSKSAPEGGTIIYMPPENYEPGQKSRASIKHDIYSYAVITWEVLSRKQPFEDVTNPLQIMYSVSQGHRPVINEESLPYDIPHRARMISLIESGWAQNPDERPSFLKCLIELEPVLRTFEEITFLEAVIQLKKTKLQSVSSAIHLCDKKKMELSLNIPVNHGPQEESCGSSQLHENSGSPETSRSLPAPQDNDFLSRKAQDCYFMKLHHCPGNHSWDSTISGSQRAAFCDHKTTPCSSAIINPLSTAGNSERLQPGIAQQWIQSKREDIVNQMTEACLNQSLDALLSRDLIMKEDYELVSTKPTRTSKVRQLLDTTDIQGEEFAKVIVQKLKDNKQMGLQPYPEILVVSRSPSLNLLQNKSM
Sequence of Dual specificity protein kinase CLK1 (P49759 whole entry): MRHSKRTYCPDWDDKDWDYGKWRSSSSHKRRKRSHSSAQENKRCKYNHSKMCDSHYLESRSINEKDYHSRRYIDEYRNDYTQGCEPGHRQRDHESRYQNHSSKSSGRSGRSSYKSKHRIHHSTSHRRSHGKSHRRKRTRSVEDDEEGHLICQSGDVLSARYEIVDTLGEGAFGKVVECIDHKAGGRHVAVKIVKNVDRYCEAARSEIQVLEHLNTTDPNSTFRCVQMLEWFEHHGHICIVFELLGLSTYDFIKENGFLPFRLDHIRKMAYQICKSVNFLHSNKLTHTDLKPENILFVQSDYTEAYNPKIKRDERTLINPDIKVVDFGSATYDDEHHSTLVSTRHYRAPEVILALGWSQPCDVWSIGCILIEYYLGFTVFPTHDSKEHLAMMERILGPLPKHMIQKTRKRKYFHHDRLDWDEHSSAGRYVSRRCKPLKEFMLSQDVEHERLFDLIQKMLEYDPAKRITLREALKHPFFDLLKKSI

SMILES | Kd [1] | Kd [2] | Kd [3] | Kd [4] | Kd [5] | Kd (Ephrin type-B receptor 2) | Kd [6] | Kd [7] | Kd [8]
CN(c1ncccc1CNc1nc(Nc2ccc3c(c2)CC(=O)N3)ncc1C(F)(F)F)S(C)(=O)=O [PF-00562271] | > 30 µM (inactive) | 0.138 µM (active) | > 30 µM (inactive) | 0.363 µM (active) | > 30 µM (inactive) | > 30 µM (inactive) | – | – | –
C=CCn1c(=O)c2cnc(Nc3ccc(N4CCN(C)CC4)cc3)nc2n1-c1cccc(C(C)(C)O)n1 [ADAVOSERTIB] | > 30 µM (inactive) | > 30 µM (inactive) | > 30 µM (inactive) | > 30 µM (inactive) | > 30 µM (inactive) | > 30 µM (inactive) | > 30 µM (inactive) | – | –
CC[C@@](C)(Nc1ccnc(-c2c[nH]c3ncccc23)n1)C(=O)NCC(F)(F)F [DECERNOTINIB] | > 30 µM (inactive) | > 30 µM (inactive) | – | > 30 µM (inactive) | > 30 µM (inactive) | > 30 µM (inactive) | 56.1 µM (active) | > 30 µM (inactive) | > 30 µM (inactive)
CC(C)(O)CC(=O)NCCn1ccc2ncnc(Nc3ccc(Oc4cccc(C(F)(F)F)c4)c(Cl)c3)c21 [TAK-285] | – | – | > 30 µM (inactive) | > 30 µM (inactive) | – | > 30 µM (inactive) | > 30 µM (inactive) | > 30 µM (inactive) | > 30 µM (inactive)
NC[C@@](O)(c1ccc(Cl)cc1)c1ccc(-c2cn[nH]c2)cc1 [AT-13148] | > 30 µM (inactive) | > 30 µM (inactive) | > 30 µM (inactive) | – | > 30 µM (inactive) | > 30 µM (inactive) | 0.026 µM (active) | > 30 µM (inactive) | > 30 µM (inactive)
COc1cc(Nc2ncc(F)c(Nc3ccc4c(n3)N(COP(=O)(O)O)C(=O)C(C)(C)O4)n2)cc(OC)c1OC [FOSTAMATINIB] | > 30 µM (inactive) | – | > 30 µM (inactive) | > 30 µM (inactive) | > 30 µM (inactive) | > 30 µM (inactive) | > 30 µM (inactive) | 1.32 µM (active) | > 30 µM (inactive)
CNC(=O)c1ccc(Nc2ncc(C(F)(F)F)c(NCc3nccnc3N(C)S(C)(=O)=O)n2)cc1 [DEFACTINIB] | > 30 µM (inactive) | – | > 30 µM (inactive) | > 30 µM (inactive) | > 30 µM (inactive) | > 30 µM (inactive) | > 30 µM (inactive) | > 30 µM (inactive) | > 30 µM (inactive)
CCOc1ccn(-c2ccc(F)cc2)c(=O)c1C(=O)Nc1ccc(Oc2ccnc(N)c2Cl)c(F)c1 [BMS-777607] | 2.08 µM (active) | > 30 µM (inactive) | – | – | > 30 µM (inactive) | > 30 µM (inactive) | > 30 µM (inactive) | – | > 30 µM (inactive)
O=C(O)c1ccc2c(c1)nc(Nc1cccc(Cl)c1)c1ccncc12 [SILMITASERTIB] | > 30 µM (inactive) | > 30 µM (inactive) | > 30 µM (inactive) | – | > 30 µM (inactive) | > 30 µM (inactive) | > 30 µM (inactive) | > 30 µM (inactive) | > 30 µM (inactive)
CCc1nc(C(N)=O)c(Nc2ccc(N3CCC(N4CCN(C)CC4)CC3)c(OC)c2)nc1NC1CCOCC1 [GILTERITINIB] | 2.04 µM (active) | 0.295 µM (active) | > 30 µM (inactive) | – | 0.482 µM (active) | > 30 µM (inactive) | > 30 µM (inactive) | 1.47 µM (active) | > 30 µM (inactive)
Cn1c(=O)n(-c2ccc(C(C)(C)C#N)cc2)c2c3cc(-c4cnc5ccccc5c4)ccc3ncc21 [DACTOLISIB] | > 30 µM (inactive) | > 30 µM (inactive) | > 30 µM (inactive) | > 30 µM (inactive) | > 30 µM (inactive) | > 30 µM (inactive) | > 30 µM (inactive) | – | –
O=S(=O)(c1cccc2cnccc12)N1CCCNCC1 [FASUDIL] | > 30 µM (inactive) | > 30 µM (inactive) | > 30 µM (inactive) | 0.152 µM | > 30 µM (inactive) | > 30 µM (inactive) | 0.943 µM (active) | – | > 30 µM (inactive)
CCN(CCCOc1ccc2c(Nc3cc(CC(=O)Nc4cccc(F)c4)n[nH]3)ncnc2c1)CCOP(=O)(O)O [BARASERTIB] | 0.082 µM (active) | > 30 µM (inactive) | > 30 µM (inactive) | > 30 µM (inactive) | 1.85 µM (active) | > 30 µM (inactive) | – | – | –
CC1(COc2ccc3c(c2)ncn3-c2ccc3cccc(N4CCC(N)CC4)c3n2)COC1 [CRENOLANIB] | – | > 30 µM (inactive) | > 30 µM (inactive) | > 30 µM (inactive) | 1.31 µM (active) | > 30 µM (inactive) | > 30 µM (inactive) | > 30 µM (inactive) | > 30 µM (inactive)
O=c1[nH]c([C@@H]2CCCN2)nc2c1oc1ccc(Cl)cc12 | > 30 µM (inactive) | > 30 µM (inactive) | > 30 µM (inactive) | – | > 30 µM (inactive) | > 30 µM (inactive) | > 30 µM (inactive) | > 30 µM (inactive) | > 30 µM (inactive)
O=S(=O)(c1cccc2c(O)nccc12)N1CCCNCC1 [HYDROXYFASUDIL] | > 30 µM (inactive) | > 30 µM (inactive) | > 30 µM (inactive) | 24.1 µM (active) | > 30 µM (inactive) | > 30 µM (inactive) | – | > 30 µM (inactive) | > 30 µM (inactive)
C[C@]1(O)C[C@@H](c2nc(-c3ccc4ccc(-c5ccccc5)nc4c3)c3c(N)nccn32)C1 [LINSITINIB] | 6.56 µM (active) | > 30 µM (inactive) | > 30 µM (inactive) | > 30 µM (inactive) | 1.36 µM (active) | > 30 µM (inactive) | – | > 30 µM (inactive) | –
